Assay results published in patent publication US12532886B2, “Method of killing microbes using C3-C5 n-alkyl-gamma-butyrolactams and antimicrobial compositions containing same” (Virox Technologies Inc., priority 2018, dated 2026).

Test system: M. smegmatis
Assay: ASTM E2197-02 test method, without soil load, against mycobacteria
Format: cell-based
Experimental: Solutions A, B and AA were prepared to test the antimicrobial activity of N-alkyl-gamma-butyrolactam, specifically N-butyl-gamma-butyrolactam and N-octyl-gamma-butyrolactam. These solutions were tested using the ASTM E2197-02 test method (5-minute contact time or 75 second contact time) without soil load, against hard-to-kill mycobacteria (M. smegmatis).
Solution B was also tested using ASTM E2197-02 test method (75 second contact time), without soil load, against mycobacteria (M. smegmatis) and achieved a log10 reduction of 0.11 (shown in the last row of Table 1.0).
Additional solutions were prepared to assess the antimicrobial activity of N-alkyl-gamma-butyrolactam, specifically N-butyl-gamma-butyrolactam, when combined with other antimicrobial agents in aqueous solution. These solutions are summarized in Tables 2.0, 2.1, and 2.2 below and tested using ASTM E2197-02 test method (75 second contact time), without soil load, against mycobacteria (M. smegmatis).

Compound	Antimicrobial activity against M. smegmatis, 5 minutes contact time
CCCCN1CCCC1=O [N-butyl-gamma-butyrolactam]	possesses antimicrobial activity
CCCCCCCCN1CCCC1=O [N-octyl-gamma-butyrolactam]	no antimicrobial activity
